Measured values as given in US20220071971A1, “MACROCYCLIC COMPOUNDS AND THEIR USE IN THE TREATMENT OF DISEASE” (NOVARTIS AG, priority 2018, published 2022).

Target: T1, delF508-CFTR (Homo sapiens, UniProt P13569, DEL508-508)
T1 construct: expressed in transfected cells
Test: Measurement of delF508-CFTR-HRP surface expression in CFBE41o- cells
Assay type: cell-based
Settings: for Emax: CFBE41o-, read-out: DelF508-CFTR-HRP Amax %; for Emax / DelF508-CFTR-HRP Amax %: efficacy relative to reference compound 3-(6-(1-(2,2-difluorobenzo[d][1,3]dioxol-5-yl)cyclopropane-1-carboxamido)-3-methylpyridin-2-yl)benzoic acid; for EC50: HRP-tagged delF508-CFTR surface expression, CFBE41o- cells, 24 h with compound, 10-point curve, highest concentration 10 μM
Source text: Measurement of deIF508-CFTR-HRP Surface Expression in CFBE41o-Cells
This assay quantifies the cell surface expressions of the mutant CFTR channel using an extracellular HRP tag.
A cellular assay was developed to measure surface expression of horseradish peroxidase (HRP) tagged delF508-CFTR in the human bronchial epithelial immortalized CFBE41o-cell line (Phuan, P. W., et al, (2014) Molecular Pharmacology 86:42-51). Specifically, the HRP sequence was inserted into the fourth extracellular loop of delF508-CFTR and stably expressed in CFBE41o-cells. Cells were seeded in 384 well plate at a density of 5000 cells/well and incubated at 37° C. for 12 to 24 hours in medium (Gibco MEM #11095, 10% FBS, 10 mM HEPES, […], 200 μg/mL G418, 3 μg/mL Puromycin). The delF508-CFTR-HRP expression was induced with 500 ng/mL doxycycline (Sigma D-9891, dissolved in H2O and sterile filtered) in medium and the cells were incubated at 37° C. for 48 h. Old medium was removed and fresh medium was added containing 500 ng/mL doxycycline and unknown test compound at required test concentration in DMSO, not exceeding 0.5% final DMSO concentration. The highest concentration tested was 10 μM with a 10-point concentration response curve using a 3-fold dilution. After addition of compounds, the cells were incubated for 24 h at 37° C. On the final day, cells were washed four times in PBS containing 1 mM MgCl2 and 0.1 mM CaCl2. HRP-Substrate (SuperSignal ELISA Pico, Fisher #37069) 20 μl/well was added and the luminescence signal was determined (Viewlux, Perkin Elmer). Light was emitted upon addition of exogenous HRP-Substrate only when delF508-CFTR-HRP reached the cell surface and the HRP tag was accessible to the HRP-Substrate (note: HRP-Substrate cannot cross the lipid bilayer to reach delF508-CFTR-HRP misfolded within the cell).
The median activity for the lowest concentration of the compounds on each assay plate was calculated and this value was used to normalize the signal for each well on the respective plate. Three replicates at each concentrations for every compound were run to determine one EC50. The median value was determined and used to calculate compound activities as described below. Effective half maximal values (EC50) were calculated for each compound by performing logistic regression on measured dose-response data points using the equation: […]
where “Y” is the observed activity, “Bottom” is the lowest observed value, “Top” is the highest observed value, and the “Hill coefficient” gives the largest absolute value of the slope. The curve fitting is carried out by a curve fitting program implemented at GNF using Matlab (Mathworks).
The dose response curves also were used to calculate Fold Change (FC) using the equation: […]
Compound efficacy relative to the reference compound 3-(6-(1-(2,2-difluorobenzo[d][1,3]dioxol-5-yl)cyclopropane-1-carboxamido)-3-methylpyridin-2-yl)benzoic acid was determined using the following formula: […]

T1 sequence (P13569 with tags, fused parts or gaps DEL508-508): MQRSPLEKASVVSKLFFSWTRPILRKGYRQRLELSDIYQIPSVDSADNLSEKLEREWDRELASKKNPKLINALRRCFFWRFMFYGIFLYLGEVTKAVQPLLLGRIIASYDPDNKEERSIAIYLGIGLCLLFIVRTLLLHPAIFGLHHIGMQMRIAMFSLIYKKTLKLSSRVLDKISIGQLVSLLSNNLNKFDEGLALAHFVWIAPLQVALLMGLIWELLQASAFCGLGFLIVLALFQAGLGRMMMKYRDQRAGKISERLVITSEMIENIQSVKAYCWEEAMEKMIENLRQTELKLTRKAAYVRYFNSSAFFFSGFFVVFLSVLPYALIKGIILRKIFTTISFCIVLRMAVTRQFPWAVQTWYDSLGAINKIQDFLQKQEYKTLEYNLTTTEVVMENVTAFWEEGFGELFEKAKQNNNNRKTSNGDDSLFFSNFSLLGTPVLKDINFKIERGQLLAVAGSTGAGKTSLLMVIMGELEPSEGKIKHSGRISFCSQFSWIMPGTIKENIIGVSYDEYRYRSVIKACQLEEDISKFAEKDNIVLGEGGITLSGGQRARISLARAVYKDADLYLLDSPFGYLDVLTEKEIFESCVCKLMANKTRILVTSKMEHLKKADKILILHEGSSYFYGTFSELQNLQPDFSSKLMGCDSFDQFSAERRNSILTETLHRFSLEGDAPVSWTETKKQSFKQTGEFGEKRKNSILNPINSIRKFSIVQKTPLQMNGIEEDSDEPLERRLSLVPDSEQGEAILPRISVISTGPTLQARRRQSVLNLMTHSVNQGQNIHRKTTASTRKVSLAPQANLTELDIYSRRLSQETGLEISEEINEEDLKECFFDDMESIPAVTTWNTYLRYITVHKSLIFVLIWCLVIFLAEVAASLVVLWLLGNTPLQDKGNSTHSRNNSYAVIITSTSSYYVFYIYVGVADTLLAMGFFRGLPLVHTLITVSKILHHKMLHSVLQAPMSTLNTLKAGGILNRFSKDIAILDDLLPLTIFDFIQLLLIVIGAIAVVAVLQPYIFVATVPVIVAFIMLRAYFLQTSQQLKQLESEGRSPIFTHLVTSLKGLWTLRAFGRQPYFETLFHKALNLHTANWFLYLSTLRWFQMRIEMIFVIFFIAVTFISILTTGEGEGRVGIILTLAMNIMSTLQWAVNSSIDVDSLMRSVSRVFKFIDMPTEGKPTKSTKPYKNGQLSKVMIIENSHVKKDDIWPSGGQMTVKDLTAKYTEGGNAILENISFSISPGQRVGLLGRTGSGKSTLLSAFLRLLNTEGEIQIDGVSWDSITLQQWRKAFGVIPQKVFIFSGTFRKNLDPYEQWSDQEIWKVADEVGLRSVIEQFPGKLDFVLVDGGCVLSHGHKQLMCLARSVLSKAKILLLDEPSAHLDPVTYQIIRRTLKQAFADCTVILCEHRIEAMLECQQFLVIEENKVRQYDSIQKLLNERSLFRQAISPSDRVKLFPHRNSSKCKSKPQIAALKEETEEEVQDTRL

| Emax [%] | EC50 [nM] | DelF508-CFTR-HRP Amax % [%] | Compound |
| --- | --- | --- | --- |
| 715 | 331 | – | CN1CCCCCCc2ccccc2-c2nc(ccc2C(F)(F)F)NS(=O)(=O)c2cccc1n2 [Compound 35, 6-methyl-2^3-(trifluoromethyl)-4-thia-3,6-diaza-2,5(2,6)-dipyridina-1(1,2)-benzenacyclododecaphane 4,4-dioxide] |
| 162 | 931 | – | CN1CCN(CCN2CCCCCc3ccccc3-c3nc(ccc3C(F)(F)F)NS(=O)(=O)c3cccc2n3)CC1 [Compound 125, 6-(2-(4-methylpiperazin-1-yl)ethyl)-2^3-(trifluoromethyl)-4-thia-3,6-diaza-2,5(2,6)-dipyridina-1(1,2)-benzenacycloundecaphane 4,4-dioxide] |
| – | 417 | – | O=C(O)CCN1CCCCCCCCCc2ccccc2-c2nc(ccc2C(F)(F)F)NS(=O)(=O)c2cccc1n2 [Compound 75, 3-(4,4-dioxido-2^3-(trifluoromethyl)-4-thia-3,6-diaza-2,5(2,6)-dipyridina-1(1,2)-benzenacyclopentadecaphane-6-yl)propanoic acid] |
| 430 | 456 | – | O=S1(=O)Nc2ccc(C(F)(F)F)c(n2)-c2ccccc2CCCCNc2cccc1n2 [Compound 115, 2^3-(trifluoromethyl)-4-thia-3,6-diaza-2,5(2,6)-dipyridina-1(1,2)-benzenacyclodecaphane 4,4-dioxide] |
| – | 1060 | – | O=S1(=O)Nc2ccc(Cl)c(n2)-c2ccccc2CCCCCCOc2cccc1n2 [Compound 111, 2^3-chloro-6-oxa-4-thia-3-aza-2,5(2,6)-dipyridina-1(1,2)-benzenacyclododecaphane 4,4-dioxide] |
| – | 1480 | 1656.8 | 6-(3-hydroxypropyl)-2^3-(trifluoromethyl)-9-oxa-4-thia-3,6-diaza-2,5(2,6)-dipyridina-1(1,2)-benzenacyclododecaphane 4,4-dioxide [Compound 30] |
| 569 | 457 | – | O=C1c2ccccc2C(=O)N1CCCN1CCCCCc2ccccc2-c2nc(ccc2C(F)(F)F)NS(=O)(=O)c2cccc1n2 [Compound 133, 2-(3-(4,4-dioxido-2^3-(trifluoromethyl)-4-thia-3,6-diaza-2,5(2,6)-dipyridina-1(1,2)-benzenacycloundecaphane-6-yl)propyl)isoindoline-1,3-dione] |
| – | 2070 | – | O=C(O)CCCN1CCOCCCc2ccccc2-c2nc(ccc2C(F)(F)F)NS(=O)(=O)c2cccc1n2 [Compound 88, 4-(4,4-dioxido-2^3-(trifluoromethyl)-9-oxa-4-thia-3,6-diaza-2,5(2,6)-dipyridina-1(1,2)-benzenacyclododecaphane-6-yl)butanoic acid] |
| – | 1400 | – | O=C(O)CCCCN1CCCCc2ccccc2-c2nc(ccc2C(F)(F)F)NS(=O)(=O)c2cccc1n2 [Compound 80, 5-(4,4-dioxido-2^3-(trifluoromethyl)-4-thia-3,6-diaza-2,5(2,6)-dipyridina-1(1,2)-benzenacyclodecaphane-6-yl)pentanoic acid] |
| – | 291 | – | O=C(O)CCCN1CCCCCCCCc2ccccc2-c2nc(ccc2C(F)(F)F)NS(=O)(=O)c2cccc1n2 [Compound 71, 4-(4,4-dioxido-2^3-(trifluoromethyl)-4-thia-3,6-diaza-2,5(2,6)-dipyridina-1(1,2)-benzenacyclotetradecaphane-6-yl)butanoic acid] |
| 583 | 253 | – | O=S1(=O)Nc2ccc(C(F)(F)F)c(n2)-c2ccccc2CCCCCCNc2cccc1n2 [Compound 36, 2^3-(trifluoromethyl)-4-thia-3,6-diaza-2,5(2,6)-dipyridina-1(1,2)-benzenacyclododecaphane 4,4-dioxide] |
| 382 | 1640 | – | O=S1(=O)Nc2ccc(C(F)(F)F)c(n2)-c2ccccc2CCCCCN(CCN2CC(O)C2)c2cccc1n2 [Compound 124, 6-(2-(3-hydroxyazetidin-1-yl)ethyl)-2^3-(trifluoromethyl)-4-thia-3,6-diaza-2,5(2,6)-dipyridina-1(1,2)-benzenacycloundecaphane 4,4-dioxide] |
| 248 | 1680 | – | O=S1(=O)Nc2ccc(C(F)(F)F)c(n2)-c2cccnc2NCCCCCNc2cccc1n2 [Compound 6, 2^3-(trifluoromethyl)-4-thia-3,6,12-triaza-1(3,2),2,5(2,6)-tripyridinacyclododecaphane 4,4-dioxide] |
| 443 | 1270 | – | O=S1(=O)Nc2ccc(C(F)(F)F)c(n2)-c2cccnc2OCCCCCNc2cccc1n2 [Compound 108, 2^3-(trifluoromethyl)-1^2-oxa-4-thia-3,6-diaza-1(3,2),2,5(2,6)-tripyridinacyclododecaphane 4,4-dioxide] |
| 651 | 385 | – | CC1(C)OCC(CN2CCCCCc3ccccc3-c3nc(ccc3C(F)(F)F)NS(=O)(=O)c3cccc2n3)O1 (stereo not shown) [Compound 37, 6-((2,2-dimethyl-1,3-dioxolan-4-yl)methyl)-2^3-(trifluoromethyl)-4-thia-3,6-diaza-2,5(2,6)-dipyridina-1(1,2)-benzenacycloundecaphane 4,4-dioxide] |
| – | 361 | – | O=S1(=O)Nc2ccc(C(F)(F)F)c(n2)-c2ccccc2CCCCCCCCCN(CCCO)c2cccc1n2 [Compound 45, 6-(3-hydroxypropyl)-2^3-(trifluoromethyl)-4-thia-3,6-diaza-2,5(2,6)-dipyridina-1(1,2)-benzenacyclopentadecaphane 4,4-dioxide] |
| 178 | 2220 | – | O=S1(=O)Nc2ccc(Cl)c(n2)-c2cccnc2NCCCCCNc2cccc1n2 [Compound 105, 2^3-chloro-4-thia-3,6,12-triaza-1(3,2),2,5(2,6)-tripyridinacyclododecaphane 4,4-dioxide] |
| – | 714 | – | O=C(O)CCN1CCCCCCc2ccc(F)cc2-c2nc(ccc2C(F)(F)F)NS(=O)(=O)c2cccc1n2 [Compound 85, 3-(1^5-fluoro-4,4-dioxido-2^3-(trifluoromethyl)-4-thia-3,6-diaza-2,5(2,6)-dipyridina-1(1,2)-benzenacyclododecaphane-6-yl)propanoic acid] |
| 721 | 2760 | – | O=C(O)CCCN1CCCCc2ccccc2-c2nc(ccc2Cl)NS(=O)(=O)c2cccc1n2 [Compound 91, 4-(2^3-chloro-4,4-dioxido-4-thia-3,6-diaza-2,5(2,6)-dipyridina-1(1,2)-benzenacyclodecaphane-6-yl)butanoic acid] |
| 745 | 1990 | – | O=C(O)COCCN1CCCCCc2ccccc2-c2nc(ccc2C(F)(F)F)NS(=O)(=O)c2cccc1n2 [Compound 74, 2-(2-(4,4-dioxido-2^3-(trifluoromethyl)-4-thia-3,6-diaza-2,5(2,6)-dipyridina-1(1,2)-benzenacycloundecaphane-6-yl)ethoxy)acetic acid] |
| – | 159 | – | O=S1(=O)Nc2ccc(C(F)(F)F)c(n2)-c2ccccc2CCCCCCCCN(CCCCO)c2cccc1n2 [Compound 44, 6-(4-hydroxybutyl)-2^3-(trifluoromethyl)-4-thia-3,6-diaza-2,5(2,6)-dipyridina-1(1,2)-benzenacyclotetradecaphane 4,4-dioxide] |
| – | 1410 | 224.1 | 8-hydroxy-2^3-(trifluoromethyl)-4-thia-3,6-diaza-2,5(2,6)-dipyridina-1(1,2)-benzenacycloundecaphane 4,4-dioxide [Compound 38] |
| 442 | 1360 | – | O=S1(=O)Nc2ccc(C(F)(F)F)c(n2)-c2ccccc2COCCCNc2cccc1n2 [Compound 11, 2^3-(trifluoromethyl)-10-oxa-4-thia-3,6-diaza-2,5(2,6)-dipyridina-1(1,2)-benzenacycloundecaphane 4,4-dioxide] |
| 372 | 978 | – | O=S1(=O)Nc2ccc(C(F)(F)F)c(n2)-c2ccccc2OCCCCNc2cccc1n2 [Compound 1, 2^3-(trifluoromethyl)-11-oxa-4-thia-3,6-diaza-2,5(2,6)-dipyridina-1(1,2)-benzenacycloundecaphane 4,4-dioxide] |
